This is an account of results in patent publication US20110201564A1, “SUBSTITUTED 7-SULFANYLMETHYL, 7-SULFINYLMETHYL AND 7-SULFONYLMETHYL INDOLES AND USE THEREOF” (BAYER SCHERING PHARMA AKTIENGESELLSCHAFT, priority 2008, published 2011).

Molecules are shown by their SMILES. Like-named read-outs stand apart in the source and are kept apart here.

Experiment [1] deals with T1, progesterone receptor (PR) (Homo sapiens, UniProt P06401).
T1 construct: of the progesterone receptor (PR, amino acids 680-933); expressed in transfected cells; host or cells: CHO K1
T1 sequence (P06401 680-933): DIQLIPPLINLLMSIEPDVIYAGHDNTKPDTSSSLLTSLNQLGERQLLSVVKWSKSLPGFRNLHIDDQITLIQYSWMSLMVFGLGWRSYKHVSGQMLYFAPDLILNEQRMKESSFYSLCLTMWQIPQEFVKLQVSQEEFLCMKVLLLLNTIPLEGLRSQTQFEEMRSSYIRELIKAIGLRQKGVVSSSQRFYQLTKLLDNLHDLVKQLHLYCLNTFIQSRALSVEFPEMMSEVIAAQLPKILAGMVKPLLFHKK
In words: Cellular in vitro assay, GAL4-PR chimera luciferase reporter in CHO K1 cells (selectivity). Type of experiment: cell-based. The following applies: antagonism vs progesterone; CHO K1 GAL4-PR LBD luciferase reporter. The procedure, abridged: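 CHO K1 cells stably expressing GAL4 DNA-binding domain fused to human MR, PR or AR ligand-binding domains plus GAL4-driven firefly luciferase; compounds added 10–30 min before agonist (aldosterone, progesterone or dihydrotestosterone), luciferase read after 5–6 h; IC50 from sigmoidal concentration–response curves.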

The target in the next experiment is T2, CYP3A4 (Homo sapiens, UniProt P08684).
T2 construct: using human liver microsomes (pool from various individuals); from tissue; host or cells: human liver microsomes (pool from various individuals)
T2 sequence (P08684 whole entry): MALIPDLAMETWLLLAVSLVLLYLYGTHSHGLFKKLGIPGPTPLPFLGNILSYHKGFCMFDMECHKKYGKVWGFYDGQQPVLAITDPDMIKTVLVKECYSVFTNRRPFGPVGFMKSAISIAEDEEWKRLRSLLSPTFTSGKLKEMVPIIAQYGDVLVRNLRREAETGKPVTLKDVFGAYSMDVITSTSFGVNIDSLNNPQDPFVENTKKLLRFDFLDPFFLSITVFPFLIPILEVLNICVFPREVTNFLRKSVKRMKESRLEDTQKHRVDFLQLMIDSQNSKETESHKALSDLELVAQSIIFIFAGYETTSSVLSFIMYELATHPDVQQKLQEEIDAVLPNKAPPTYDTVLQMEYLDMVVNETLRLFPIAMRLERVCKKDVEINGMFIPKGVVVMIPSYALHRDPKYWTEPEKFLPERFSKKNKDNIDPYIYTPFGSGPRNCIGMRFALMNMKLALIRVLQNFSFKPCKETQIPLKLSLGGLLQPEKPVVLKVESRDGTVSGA
Briefly: CYP inhibition assay with human liver microsomes. It counts as in vitro ADME. The text has this: Inhibitory properties of an active ingredient on the cytochromes P450 (CYP) of the human body may entail extensive clinical effects (drug interactions) because most of the prescribed medicaments are degraded (metabolized) by these enzymes. The ones involved in this are in particular the CYP isoenzymes of the 1A and 2C families, CYP2D6 and, with a proportion of almost 50%, CYP3A4. In order to preclude or minimize these possible drug interactions (Drug-Drug Interactions, DDI), the ability of substances to be able to inhibit CYP1A2, CYP2C8, CYP2C9, CYP2D6 and CYP3A4 in humans is investigated using human liver microsomes (pool from various individuals). This takes place by measuring CYP isoform-specific metabolites formed from standard substrates such as, for example, phenacetin, amodiaquin, diclofenac, dextromethorphan, midazolam and testosterone. The inhibitory effects are investigated at six different concentrations of the test compounds (1.5, 3.1, 6.3, 12.5, 25 and 50 μM as maximum concentration or 0.6, 1.3, 2.5, 5, 10 and 20 μM as maximum concentration), comparing with the extent of the CYP isoform-specific metabolite formation of the standard substrates in the absence of the test compounds, and calculating the corresponding IC50 values. CYP isoform-specific standard inhibitors such as, for example, fluvoxamine, quercetin, sulfaphenazole, fluoxetine and ketoconazole serve as control of the results obtained. In order to obtain indications of the possible mechanism-based inhibitors (MBI) on CYP3A4, the human liver microsomes are incubated in the presence of the inhibitor to be investigated for 30 minutes before the addition of midazolam or testosterone as standard substrates of CYP3A4. A reduction in the IC50 obtained by comparison with the mixture without preincubation serves as an indicator of a mechanism-based inhibition. Mibefradil serves as positive control.
The incubations of the standard substrates with human liver microsomes (23-233 μg/mL) in the presence of the test compound (as potential inhibitor) are carried out in 96-well plates in a workstation (Tecan, Genesis, Crailsheim, Germany) at 37° C. The incubation times are 15-20 minutes. The test compounds are preferably dissolved in acetonitrile (1.0 or 2.5 mM stock solution). The 96-well plates are produced by sequential addition of a stock solution of NADP+, EDTA, glucose 6-phosphate and glucose-6-phosphate dehydrogenase in phosphate buffer (pH 7.4), the test compound, and a solution of standard substrate and human liver microsomes in phosphate buffer (pH 7.4). The total volume is 200 μl. The corresponding control incubations with and without standard inhibitor also take place on the 96-well plate. The incubations are stopped after the respective incubation time by adding 100 μl of acetonitrile in which there is a suitable internal standard. Precipitated proteins are removed by centrifugation (3000 rpm, 10 minutes, 10° C.). The resulting supernatants of the respective plates are combined on one plate and analyzed by LC-MS/MS. The […] values are generated from the resulting measured data and used to assess the inhibitory potential of the test compound.
(In general: Liver microsomes are a subcellular fraction often used to study metabolism.)

[2] abbreviates: 30 min preincubation with test compound before substrate, read-out: CYP 3A4 Preincubation, 30 min.
[3] abbreviates: without preincubation, read-out: CYP 3A4 Coincubation.

Regarding `CS(=O)(=O)Cc1cccc2c(C(CCC#N)c3ccc(Cl)cc3F)c[nH]c12` (single isomer, unassigned) [Example 59-1, 4-(4-Chloro-2-fluorophenyl)-4-{7-[(methylsulfonyl)methyl]-1H-indol-3-yl}butanonitrile], the results for the IC50 (in experiment [1]; on CYP3A4 (setting [2]); at CYP3A4 (setting [3])) were 10 µM, 13.1 µM and greater than 20 µM, respectively.

In the case of `CS(=O)(=O)Cc1cccc2c(C(c3ccc(Cl)cc3)C3CC3(F)F)c[nH]c12` (single isomer, unassigned) [Example 261-1, 3-[(4-Chlorophenyl)(2,2-difluorocyclopropyl)methyl]-7-[(methylsulfonyl)methyl]-1H-indole], the IC50 in experiment [1] was 12.3 µM; on CYP3A4 (setting [2]), 19 µM; at CYP3A4 (setting [3]), greater than 20 µM.

Regarding `CS(=O)(=O)Cc1cc(F)cc2c(C(c3ccc(C(F)(F)F)cc3F)C3CC3C#N)c[nH]c12` (single isomer, unassigned) [Example 271-1-1, 2-({5-Fluoro-7-[(methylsulfonyl)methyl]-1H-indol-3-yl}[2-fluoro-4-(trifluoro-methyl)phenyl]methyl)cyclopropanecarbonitrile], the IC50 is 10 µM in experiment [1], 25.6 µM on CYP3A4 (setting [2]) and greater than 40 µM on CYP3A4 (setting [3]).

With `CS(=O)(=O)Cc1cc(F)cc2c(C(c3ccc(Cl)cc3F)C3CC3C#N)c[nH]c12` (single isomer, unassigned) [Example 273-1-2, 2-[(4-Chloro-2-fluorophenyl){5-fluoro-7-[(methylsulfonyl)methyl]-1H-indol-3-yl}methyl]cyclopropanecarbonitrile], the IC50 was 10 µM in experiment [1], 13.7 µM at CYP3A4 (setting [2]) and greater than 20 µM on CYP3A4 (setting [3]).

Turning to `CS(=O)(=O)Cc1cccc2c(C(CCC#N)c3ccc4sccc4c3)c[nH]c12` (stereo not drawn) [Example 73, 4-(1-Benzothiophen-5-yl)-4-{7-[(methylsulfonyl)methyl]-1H-indol-3-yl}butanonitrile], the IC50 was 6.44 µM in experiment [1], 16.6 µM on CYP3A4 (setting [2]) and greater than 20 µM on CYP3A4 (setting [3]).

Take `CS(=O)(=O)Cc1cccc2c(C3(C4CC4)CCc4cc(F)ccc43)c[nH]c12` (stereo not drawn) [Example 107, 3-(1-Cyclopropyl-5-fluoro-2,3-dihydro-1H-inden-1-yl)-7-[(methylsulfonyl)methyl]-1H-indole]: the IC50 in experiment [1] was 4.83 µM; on CYP3A4 (setting [2]), 12.9 µM; at CYP3A4 (setting [3]), greater than 20 µM.

Take `CS(=O)(=O)Cc1cccc2c(C(c3ccc(F)cc3)c3ccc(C(F)(F)F)cc3)c[nH]c12` (stereo not drawn) [Example 113, 3-{(4-Fluorophenyl) [4-(trifluoromethyl)phenyl]methyl}-7-[(methylsulfonyl)methyl]-1H-indole]: the IC50 in experiment [1] is 7.24 µM; at CYP3A4 (setting [2]), greater than 20 µM; on CYP3A4 (setting [3]), greater than 20 µM.

Take `CCC(CCO)(c1ccc(Cl)cc1)c1c[nH]c2c(CS(C)(=O)=O)cccc12` (stereo not drawn) [Example 147, 3-(4-Chlorophenyl)-3-{7-[(methylsulfonyl)methyl]-1H-indol-3-yl}pentan-1-ol]: the IC50 in experiment [1] is 1.42 µM; at CYP3A4 (setting [2]) it was 8.8 µM; on CYP3A4 (setting [3]), greater than 20 µM.

As to `CS(=O)(=O)Cc1cccc2c(C(CCC#N)c3ccc4c(c3)OC(F)(F)O4)c[nH]c12` (stereo not drawn) [Example 169, 4-(2,2-Difluoro-1,3-benzodioxol-5-yl)-4-{7-[(methylsulfonyl)methyl]-1H-indol-3-yl}butanonitrile], the values for the IC50 (in experiment [1]; on CYP3A4 (setting [2]); at CYP3A4 (setting [3])) were 6.57 µM, 17 µM and greater than 20 µM, respectively.

With `CCC(CCC#N)(c1ccc(Cl)cc1)c1c[nH]c2c(CS(C)(=O)=O)cccc12` (stereo not drawn) [Example 172, 4-(4-Chlorophenyl)-4-{7-[(methylsulfonyl)methyl]-1H-indol-3-yl}hexanonitrile], the results for the IC50 (in experiment [1]; on CYP3A4 (setting [2]); on CYP3A4 (setting [3])) were 16 µM, 9.6 µM and greater than 20 µM, respectively.
